One data set deals with IL-2. The data set is described as follows: Cytokine suppression in splenocytes: IL-2. It is filed as cell-based, Balb/C mice. Particulars: 48 hrs. On the procedure: (§1) Naïve Balb/C mice were randomized in two groups. Mice from groups 1 and 2 were sacrificed and spleens were isolated. The Splenocytes were isolated and cultured in RPMI […] 1640 media with 10% FBS and 1% antibiotics in microtitre plate. Group 1 was incubated with PBS while group 2 was incubated with 10̂8 Mw cells. After 48 hrs the cell supernatant was separated and the levels of cytokines were checked using commercial kit from R & D systems (Cat # M2000, Cat # M4000B, Cat # M1240).
(§2) Naïve Balb/C mice were sacrificed and spleens were isolated for all five groups. The splenocytes were isolated from each group and cultured in RPMI 1640 media with […] in microtitre plate. The cells were plated in micro titer plate. The wells were divided into five sets. Set one was the control, set two was stimulated with Mw, set three with 10 mM of Dexamethasone set four with 10 mcM (micro mole) of Dexamethasone and set five with 1 mcM of dexammethasone. After 48 hrs of culture the cells were harvested and the cytokine assays were performed using commercial kits from R&D systems. (Cat #M5000, Cat #M4000B, Cat #M2000, Cat #M1240)

The subject of a further data set is IL-4. The data set is described as follows: Cytokine suppression in splenocytes: IL-4. Particulars: 48 hrs. It is filed as cell-based, Balb/C mice. The protocol: as §1, §2
The subject of another data set is IL-5. The data set is described as follows: Cytokine suppression in splenocytes: IL-5. It is filed as cell-based, Balb/C mice. Particulars: 48 hrs. On the procedure:
as §1, §2

Another data set deals with IL-12p40. As to the kind of experiment: Cytokine suppression in splenocytes: IL-12p40. Format: cell-based, Balb/C mice. Conditions: 48 hrs. The protocol: as §1, §2
The conditions of data set [1]: after administration of 200 mg of Dexamethasone intravenously; cited from earlier work.

We go through 1 molecule from patent publication US20100104536A1, “P38 INHIBITORS” (priority 2007, published 2010).

For `C[C@@H]1C[C@H]2[C@@H]3CCC4=CC(=O)C=C[C@]4(C)[C@@]3(F)[C@@H](O)C[C@]2(C)[C@@]1(O)C(=O)CO` [Dexamethasone], the “In vitro % inhibition of IL-2” value is given as 25.6% in the data set on IL-2 (Dexamethasone 1 mcM) and 33.7% in the data set on IL-2 (Dexamethasone 10 mcM). Besides, the inhibition at 10000 µM with IL-2 (Mus musculus, Splenocyte, Dexamethasone 10 mM, read-out: In vitro % inhibition of IL-2) stood at 70.6%; in the data set with IL-4 (Mus musculus, Splenocyte, Dexamethasone 10 mM, read-out: In vitro % inhibition of IL-4), 93.7%; in the data set on IL-5 (Mus musculus, Splenocyte, Dexamethasone 10 mM, read-out: In vitro % inhibition of IL-5) it was 85.8%; with IL-12p40 (Mus musculus, Splenocyte, Dexamethasone 10 mM, read-out: In vitro % inhibition of IL-12p40), 57.7%. For the same molecule, the results for the “In vitro % inhibition of IL-4” value in the data set on IL-4 (Dexamethasone 1 mcM) and in the data set with IL-4 (Dexamethasone 10 mcM) were 61.9% and 84.5%, respectively. The “In vitro % inhibition of IL-5” value was 43.9% in the data set on IL-5 (Dexamethasone 1 mcM) and 70.3% in the data set on IL-5 (Dexamethasone 10 mcM). The “In vitro % inhibition of IL-12p40” value in the data set on IL-12p40 (Dexamethasone 1 mcM) is 33.7%; with IL-12p40 (Dexamethasone 10 mcM), 47.1%. The Cmax in data set [1] was 10000 µM.
